PubChem BioAssay (NCI)
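Results reflect a 48-hour exposure of cells in 96-well plates to compound at five concentrations. At the TGI there is no net growth.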

Key:
Test in all cases: growth of human tumour cells (NCI), 48 h
[1] = tested on: MDA-N
[2] = tested on: A549 NSCLC
[3] = tested on: HL-60(TB) leukemia
[4] = tested on: SK-MEL-28 melanoma
[5] = tested on: TK-10 renal
[6] = tested on: HCC-2998 colon
[7] = tested on: BT-549 breast
[8] = tested on: LOX IMVI melanoma
[9] = tested on: 786-0 renal
[10] = tested on: MOLT-4 leukemia
[11] = tested on: U251 CNS
[12] = tested on: HOP-92 NSCLC
[13] = tested on: IGROV1 ovarian
[14] = tested on: SF-539 CNS
[15] = tested on: SF-268 CNS
[16] = tested on: MCF7 breast
[17] = tested on: HOP-62 NSCLC
[18] = tested on: OVCAR-8 ovarian
[19] = tested on: CAKI-1 renal
[20] = tested on: SF-295 CNS
[21] = tested on: NCI-H23 lung
[22] = tested on: UACC-257 melanoma
[23] = tested on: SNB-19 CNS
[24] = tested on: HCT-116 colon
[25] = tested on: HS 578T breast
[26] = tested on: HCT-15 colon
[27] = tested on: MDA-MB-435
[28] = tested on: NCI-H522 lung
[29] = tested on: NCI/ADR-RES ovarian
[30] = tested on: HT29 colon
[31] = tested on: SNB-75 CNS
[32] = tested on: KM12 colon
[33] = tested on: SN12C renal
[34] = tested on: UACC-62 melanoma
[35] = tested on: MDA-MB-231 breast
[36] = tested on: K-562 leukemia
[37] = tested on: OVCAR-4 ovarian
[38] = tested on: SW-620 colon
[39] = tested on: OVCAR-5 ovarian
[40] = tested on: COLO 205 colon
[41] = tested on: PC-3 prostate
[42] = tested on: ACHN renal
[43] = tested on: SR leukemia
[44] = tested on: SK-OV-3 ovarian
[45] = tested on: RPMI-8226 leukemia
[46] = tested on: CCRF-CEM leukemia
[47] = tested on: DU-145 prostate
[48] = tested on: SK-MEL-5 melanoma
[49] = tested on: M14 melanoma
[50] = tested on: MALME-3M melanoma
[51] = tested on: T-47D breast
[52] = tested on: SK-MEL-2 melanoma
[53] = tested on: EKVX NSCLC
[54] = tested on: RXF 393 renal
[55] = tested on: A498 renal
[56] = tested on: NCI-H226 lung
[57] = tested on: OVCAR-3 ovarian
[58] = tested on: NCI-H460 lung
[59] = tested on: UO-31 renal

Question: With COC1CN(C)C(=Nc2cccc3ccccc23)S1 (centres undefined) as the compound, how does the TGI [1] read?
Answer: > 10 µM

Question: What about the TGI [2] of the same compound?
Answer: > 10 µM

Question: And the TGI [3]?
Answer: > 10 µM

Question: What about the TGI [4] of the same compound?
Answer: > 10 µM

Question: What about the TGI [5] of the same compound?
Answer: > 10 µM

Question: What about the TGI [6] of the same compound?
Answer: > 10 µM

Question: And the TGI [7]?
Answer: > 10 µM

Question: And the TGI [8]?
Answer: > 10 µM

Question: What about the TGI [9] of the same compound?
Answer: > 10 µM

Question: And the TGI [10]?
Answer: > 10 µM

Question: What about the TGI [11] of the same compound?
Answer: > 10 µM

Question: What about the TGI [12] of the same compound?
Answer: > 10 µM

Question: What about the TGI [13] of the same compound?
Answer: > 10 µM

Question: What about the TGI [14] of the same compound?
Answer: > 10 µM

Question: And the TGI [15]?
Answer: > 10 µM

Question: What about the TGI [16] of the same compound?
Answer: > 10 µM

Question: And the TGI [17]?
Answer: > 10 µM

Question: What about the TGI [18] of the same compound?
Answer: > 10 µM

Question: What about the TGI [19] of the same compound?
Answer: > 10 µM

Question: And the TGI [20]?
Answer: > 10 µM

Question: What about the TGI [21] of the same compound?
Answer: > 10 µM

Question: And the TGI [22]?
Answer: > 10 µM

Question: What about the TGI [23] of the same compound?
Answer: > 10 µM

Question: What about the TGI [24] of the same compound?
Answer: > 10 µM

Question: What about the TGI [25] of the same compound?
Answer: > 10 µM

Question: And the TGI [26]?
Answer: > 10 µM

Question: And the TGI [27]?
Answer: > 10 µM

Question: What about the TGI [28] of the same compound?
Answer: > 10 µM

Question: What about the TGI [29] of the same compound?
Answer: > 10 µM

Question: What about the TGI [30] of the same compound?
Answer: > 10 µM

Question: And the TGI [31]?
Answer: > 10 µM

Question: What about the TGI [32] of the same compound?
Answer: > 10 µM

Question: What about the TGI [33] of the same compound?
Answer: > 10 µM

Question: And the TGI [34]?
Answer: > 10 µM

Question: And the TGI [35]?
Answer: > 10 µM

Question: And the TGI [36]?
Answer: > 10 µM

Question: What about the TGI [37] of the same compound?
Answer: > 10 µM

Question: And the TGI [38]?
Answer: > 10 µM

Question: And the TGI [39]?
Answer: > 10 µM

Question: What about the TGI [40] of the same compound?
Answer: > 10 µM

Question: And the TGI [41]?
Answer: > 10 µM

Question: What about the TGI [42] of the same compound?
Answer: > 10 µM

Question: And the TGI [43]?
Answer: > 10 µM

Question: What about the TGI [44] of the same compound?
Answer: > 10 µM

Question: And the TGI [45]?
Answer: > 10 µM

Question: What about the TGI [46] of the same compound?
Answer: > 10 µM

Question: What about the TGI [47] of the same compound?
Answer: > 10 µM

Question: And the TGI [48]?
Answer: > 10 µM

Question: And the TGI [49]?
Answer: > 10 µM

Question: What about the TGI [50] of the same compound?
Answer: > 10 µM

Question: And the TGI [51]?
Answer: > 10 µM

Question: What does the source list for O=c1c2cc3c(=O)n4c(cc(-c5ccccc5)c5cc(Cl)ccc54)nc3cc2nc2cc(-c3ccccc3)c3cc(Cl)ccc3n12?
Answer: TGI [1]: > 100 µM; TGI [2]: > 100 µM; TGI [52]: > 100 µM; TGI [4]: > 100 µM; TGI [5]: > 100 µM; TGI [6]: > 100 µM; TGI [7]: > 100 µM; TGI [53]: > 100 µM; TGI [54]: > 100 µM; TGI [8]: > 100 µM; TGI [9]: > 100 µM; TGI [10]: > 100 µM; TGI [11]: > 100 µM; TGI [12]: > 100 µM; TGI [13]: > 100 µM; TGI [14]: > 100 µM; TGI [15]: > 100 µM; TGI [16]: > 100 µM; TGI [17]: > 100 µM; TGI [18]: > 100 µM; TGI [19]: > 100 µM; TGI [20]: > 100 µM; TGI [21]: > 100 µM; TGI [22]: > 100 µM; TGI [23]: > 100 µM; TGI [24]: > 100 µM; TGI [25]: > 100 µM; TGI [26]: > 100 µM; TGI [27]: > 100 µM; TGI [28]: > 100 µM; TGI [29]: > 100 µM; TGI [55]: > 100 µM; TGI [30]: > 100 µM; TGI [31]: > 100 µM; TGI [32]: > 100 µM; TGI [33]: > 100 µM; TGI [34]: > 100 µM; TGI [56]: > 100 µM; TGI [35]: > 100 µM; TGI [36]: > 100 µM; TGI [57]: > 100 µM; TGI [38]: > 100 µM; TGI [39]: > 100 µM; TGI [40]: > 100 µM; TGI [41]: > 100 µM; TGI [42]: > 100 µM; TGI [43]: > 100 µM; TGI [44]: > 100 µM; TGI [45]: > 100 µM; TGI [46]: > 100 µM; TGI [58]: > 100 µM; TGI [47]: > 100 µM; TGI [48]: > 100 µM; TGI [49]: > 100 µM; TGI [59]: > 100 µM; TGI [51]: > 100 µM

Question: Which results are given for Cc1cccc2c1c(=O)c1c(O)c3c(cc1n2C)OC(C)(C)C=C3?
Answer: TGI [1]: > 10 µM; TGI [2]: > 10 µM; TGI [3]: > 10 µM; TGI [52]: > 10 µM; TGI [4]: > 10 µM; TGI [5]: > 10 µM; TGI [6]: > 10 µM; TGI [7]: > 10 µM; TGI [53]: > 10 µM; TGI [54]: > 10 µM; TGI [8]: > 10 µM; TGI [9]: > 10 µM; TGI [10]: > 10 µM; TGI [11]: > 10 µM; TGI [13]: > 10 µM; TGI [14]: > 10 µM; TGI [15]: > 10 µM; TGI [16]: > 10 µM; TGI [17]: > 10 µM; TGI [18]: > 10 µM; TGI [19]: > 10 µM; TGI [20]: > 10 µM; TGI [21]: > 10 µM; TGI [22]: > 10 µM; TGI [23]: > 10 µM; TGI [24]: > 10 µM; TGI [25]: > 10 µM; TGI [26]: > 10 µM; TGI [27]: > 10 µM; TGI [28]: > 10 µM; TGI [29]: > 10 µM; TGI [55]: > 10 µM; TGI [30]: > 10 µM; TGI [31]: > 10 µM; TGI [32]: > 10 µM; TGI [33]: > 10 µM; TGI [34]: > 10 µM; TGI [56]: > 10 µM; TGI [35]: > 10 µM; TGI [36]: > 10 µM; TGI [57]: > 10 µM; TGI [37]: > 10 µM; TGI [38]: > 10 µM; TGI [39]: > 10 µM; TGI [40]: > 10 µM; TGI [41]: > 10 µM; TGI [42]: > 10 µM; TGI [43]: > 10 µM; TGI [44]: > 10 µM; TGI [45]: > 10 µM; TGI [46]: > 10 µM; TGI [58]: > 10 µM; TGI [47]: > 10 µM; TGI [48]: > 10 µM; TGI [49]: > 10 µM; TGI [50]: > 10 µM; TGI [51]: > 10 µM

Question: Which results are given for CC(=O)O[C@H]1CC[C@@]2(C)C(=CC[C@@H]3[C@@H]2CC[C@]2(C)c4c(C)nn(-c5ccccc5)c4C[C@@H]32)C1?
Answer: TGI [1]: > 100 µM; TGI [2]: > 100 µM; TGI [3]: 77 µM; TGI [4]: > 100 µM; TGI [5]: 51 µM; TGI [6]: 30.6 µM; TGI [7]: 23.8 µM; TGI [53]: 53.7 µM; TGI [54]: 19.3 µM; TGI [8]: 27.6 µM; TGI [9]: 35.9 µM; TGI [10]: > 100 µM; TGI [11]: > 100 µM; TGI [12]: 70.8 µM; TGI [13]: > 100 µM; TGI [15]: > 100 µM; TGI [16]: > 100 µM; TGI [17]: 35.2 µM; TGI [18]: > 100 µM; TGI [19]: 47.2 µM; TGI [20]: 12.9 µM; TGI [21]: 31.3 µM; TGI [22]: > 100 µM; TGI [23]: > 100 µM; TGI [24]: > 100 µM; TGI [25]: 67.2 µM; TGI [26]: > 100 µM; TGI [27]: > 100 µM; TGI [28]: 45.3 µM; TGI [29]: > 100 µM; TGI [55]: 52.8 µM; TGI [30]: > 100 µM; TGI [31]: 49.9 µM; TGI [32]: 86.7 µM; TGI [33]: > 100 µM; TGI [34]: 39.3 µM; TGI [56]: 75.3 µM; TGI [35]: 50.6 µM; TGI [36]: > 100 µM; TGI [57]: > 100 µM; TGI [37]: > 100 µM; TGI [38]: > 100 µM; TGI [39]: 68.1 µM; TGI [40]: 36.2 µM; TGI [41]: > 100 µM; TGI [42]: 61.1 µM; TGI [43]: 65 µM; TGI [44]: 44.5 µM; TGI [46]: 56.9 µM; TGI [58]: 47.9 µM; TGI [47]: 37.2 µM; TGI [48]: > 100 µM; TGI [49]: > 100 µM; TGI [59]: 47.3 µM; TGI [51]: > 100 µM
